Among the data in patent publication US20060058361A1, “Therapeutic diphenyl ether ligands” (Pfizer Inc, priority 2004, published 2006) are melting point values, retold here.

Broadly, the melting point is the temperature of the solid-liquid transition.

`CNCc1cc(C)c([S+](C)[O-])cc1Oc1ccc(Cl)c(C)c1C` (centres unmarked) [Example 19, [2-(4-Chloro-2,3-dimethylphenoxy)-4-methanesulfinyl-5-methylbenzyl]methylamine]: the melting point was in the range of 220 to 222 °C.
Next, `CNC(C)c1cc(F)c(Cl)cc1Oc1ccc(Cl)cc1F` (centres unmarked) [Example 41, {1-[4-Chloro-2-(4-chloro-2-fluorophenoxy)-5-fluorophenyl]ethyl}-methylamine]: 178 to 180 °C.
The result for `CNCc1cc(C)c(Cl)cc1Oc1ccc(Cl)cc1F` [Example 43, [4-Chloro-2-(4-chloro-2-fluorophenoxy)-5-methylbenzyl]methylamine] reads 212 to 214 °C.
`CNCc1cc(C)c(C)cc1Oc1ccc(Cl)cc1F` [Example 45, [2-(4-Chloro-2-fluorophenoxy)-4,5-dimethylbenzyl]methylamine] displayed a melting point of 134 to 136 °C.
The result for `CNCc1ccc(OC)cc1Oc1ccc(Cl)cc1F` [Example 46, [2-(4-Chloro-2-fluorophenoxy)-4-methoxy-benzyl]methylamine] reads 186 to 188 °C; that for `CNCc1ccc(C)cc1Oc1ccc(Cl)cc1F` [Example 47, [2-(4-Chloro-2-fluorophenoxy)-4-methylbenzyl]methylamine], 198 to 220 °C; that for `CNCc1ccc(Br)cc1Oc1ccc(Cl)cc1F` [Example 50, [4-Bromo-2-(4-chloro-2-fluorophenoxy)benzyl]methylamine], 204 to 206 °C.
Consider `CNCc1cc(F)c(S(C)(=O)=O)cc1Oc1ccc(Cl)cc1F` [Example 52, [2-(4-Chloro-2-fluorophenoxy)-5-fluoro-4-methanesulfonylbenzyl]methylamine], for which the melting point was 184 to 186 °C.
The result for `CNCc1ccc(Cl)cc1Oc1ccc(F)c2c1CCC2` [Example 57, [4-Chloro-2-(7-fluoroindan-4-yloxy)benzyl]methylamine] reads 204 to 206 °C.
Next, `CNCc1ccc(S(C)(=O)=O)cc1Oc1ccc2c(c1)CCC2` [Example 58, [2-(Indan-5-yloxy)-4-methanesulfonylbenzyl]methylamine]: 88 to 90 °C; `CCSc1ccc(CNC)c(Oc2ccc(Cl)cc2)c1` [Example 60, [2-(4-Chlorophenoxy)-4-ethylsulfanylbenzyl]methylamine]: 158 to 160 °C.
